Experimental data reported in US20250325467A1, “COMPOSITIONS FOR PREVENTING OR TREATING SKIN AGING” (ESTETRA SRL, priority 2021, published 2025).
Entries after “also recorded” stand apart in the source; their conditions may differ.

Columns and labels:
[1] = system: mouse lymphoma cell line L5178Y TK^+/−; test: Generation of reactive oxygen species (ROS) in mouse lymphoma cells; type: cell-based; settings: up to 100 μM; 3 h exposure; vs vehicle control
Procedure: The objective of the study was to investigate the generation of reactive oxygen species (ROS) induced by the test item, estetrol (E4), in a mouse lymphoma cell line L5178Y TK^+/−.
L5178Y TK^+/− cells in logarithmic phase of growth were plated in black 96 well cell culture plates at 1×10^4 cells in 90 μL of cell culture media. Controls and test item in triplicate were applied to the cells as a 10× concentrate in 10 μL of a 10% ethanol solution in PBS (final concentration of ethanol on plate was 1%). Cells were incubated for 3 hours at 37° C., 5% CO2, and the generation of ROS was evaluated by fluorescence with a ROS reagent: the ROS reagent was freshly prepared by dissolving one ampoule of reagent (50 μg) in 70 μL DMSO and further diluting this with 2.1 mL of pre-warmed PBS. 10 μL of ROS reagent was added to each well and the plate were shaken for 30 seconds in the dark. The plates were incubated approximately at 37° C., 5% CO2 for 1 h 30 min and fluorescence was read on a plate scanner with excitation at 492 nm and emission at 520 nm.

[2] = system: Normal Human Epidermal Keratinocytes (NHEKs); test: Colonization of a standard acellular area (IBIDI chamber gap closure) by keratinocytes; type: cell-based; settings: for colonization of the cell-free area by NHEK, overall: all four concentrations (10^−7M to 10^−10M), vs ethanol control
Procedure: (§1) The study consists in an in vitro assay aiming to evaluate the properties of E4 and E2 at 4 concentrations each on keratinocytes and fibroblasts. In this assay, the measurement of the colonization of a standard acellular surface generated from a confluent monolayer of cells using a dedicated culture device (IBIDI chamber) is performed. The assay is performed in absence and in presence of a proliferation inhibitor to focus on cell proliferation and migration or on migration only, respectively.
The study was performed using cultures of Normal Human foreskin-derived Epidermal Keratinocytes (NHEKs, Lonza). The cells were grown in serum free Epilife medium (ThermoFisher Scientific) supplemented with Human Keratinocyte Growth Supplement (HKGS, ThermoFisher Scientific) and antibiotics. The cells were maintained in a humidified incubator at 37° C. with a 5% CO2 atmosphere.
(§2) Cells were plated in 2-well silicone inserts with a defined cell free gap (IBIDI chambers; IBIDI GmbH, 80209) that was previously inserted on 12-well culture plates. This culture device allows to create a standardized 500 μm±100 μm cell free gap for monitoring cell colonization. 24 h after seeding, when the culture reached high confluency, cells in the insert were treated, or not, with mitomycin C (MMC) at 10 μg/ml during 2 h. After these 2 hours, the insert was removed, and cells were treated with E2 or E4 in presence or not of MMC for additional 2 h. Then, if appropriate, the culture medium was removed and cells were treated with E2 or E4 for 22 h, in absence of MMC.
(§3) For the assay, keratinocytes were plated in Epilife medium without HKGS and all the treatments were performed in this medium. Fibroblasts were plated in DMEM medium containing only 2,5% of FBS and the treatments were performed in absence of FBS.
(§4) E2 and E4 were applied at 4 concentrations each (10^−7M, 10^−8M, 10^−9M, 10^−10M). In parallel, cells were treated with a positive control (HKGS 1% for human keratinocytes and PDGF-BB at 10 ng/ml for human fibroblasts).
(§5) To monitor cell colonization and to evaluate the gap closure rate, pictures of the gap were taken after different times: at time 0 h, corresponding to the beginning of the treatment with E2 or E4 and to the removal of the culture insert, at time 6 h and at time 24 h (corresponding to the end of the treatments with E2 or E4). Pictures were taken with a microscope Zeiss (Axiover 25-10× objective) and with a camera Invenio2EIII (DeltaPix—Lux-Optic). The colonized areas were quantified from the pictures by the use of the WimAsis platform—WimScratch software. For each insert, 3 pictures were taken at each time. As each condition was performed in triplicates, it means a total of 9 pictures per condition and per time point of acquisition

[3] = system: Normal Human Dermal Fibroblasts (NHDFs); test: Colonization of a standard acellular area (IBIDI chamber gap closure) by fibroblasts; type: cell-based; settings: for NHDF Proliferation & Migration (colonization of the acellular area): absence of MMC, 6 h and 24 h; for colonized area, NHDF, positive reference: 10 ng/ml
Procedure: as §1
Normal Human forskin-derived Dermal Fibroblats (NHDFs, ATCC) cells were grown in phenol-free Dulbecco's Modified Eagle Medium (DMEM, ThermoFisher Scientific) supplemented with 10% of Foetal Bovine Serum (FBS, ThermoFisher Scientific), L-glutamine and antibiotics. The cells were maintained in a humidified incubator at 37° C. with a 5% CO2 atmosphere.
as §2, §3, §4, §5

[4] = system: IL-6 release from NHEKs; test: PMA/A23187-induced IL-6 release from NHEKs (ELISA, normalized to viability); type: cell-based, human; settings: E2, 3 concentrations assessed (not specified); 24 h
Procedure: The Normal Human foreskin-derived Epidermal Keratinocytes (NHEKs, Lonza, 00192906), isolated from foreskin of 3 Caucasian donors, were grown in Epilife medium (Fisher Scientific, M-EPI-500-A) supplemented with Human Keratinocyte Growth Supplement (HKGS, Fisher Scientific, S-001-5) and antibiotics (Gentamycin, Fisher Scientific, 15710-049). The cells were maintained in a humidified incubator at 37° C. with a 5% CO2 atmosphere.
E4 and E2, provided as powder, were dissolved in 100% ethanol at 0.1M. They were then further diluted in ethanol and in culture medium to reach the appropriate concentrations. […] Practically, stock solutions 1000-fold concentrated were prepared in 100% ethanol, aliquoted and stored at −20° C. until cell application.
In order to induce the release of IL-6, NHEKs were exposed for 24 h with phorbol myristate acetate (PMA) at 10 ng/mL, in combination with calcium ionophore A23187 (Sigma Aldrich, C5722) at 2 μM. The treatments with the test or reference items were performed simultaneously with the inflammatory challenge. […] E4 was applied at 10^−4, 10^−5, 10^−6, 10^−7 and 10^−8 M and E2 at 10^−5, 10^−6, 10^−7, 10^−8 and 10^−9 M EtOH at 0.1% was tested as solvent control. Dexamethasone at 10 μM was used as anti-inflammatory reference. At the end of 24 h treatment, supernatants were harvested and stored at −20° C., and cell viability assay was assessed by MTS (see section 5). The kinetics of the treatments is outlined in FIG. 12. All the treatments were performed in triplicates (n=3).
The quantification of the release of inflammatory markers was performed using specific ELISA kits, based on standard curves, according to supplier's specifications. The results were then normalized to the corresponding cell viability (obtained by MTS assay).
The supplier's reference of the kits used for IL-6 quantification is as follows: IL-6, BioTechne, D6050.
At the end of the treatments and culture media collection, the viability of the cells was evaluated using the MTS (3-(4,5-dimethythiazol-2-yl)-5-(3-carboxy-methoxyphenyl)-2-(4-sulfophenyl)-2H-tetrazolium) assay. The effects of the treatments were compared to the untreated control condition and to the solvent control (EtOH 0.1%). The viability data were used in order to normalize the quantities of released inflammatory mediators.
NHEKs were treated as described in the methodology section. The quantification of IL-6 by ELISA was performed from the collected supernatants, following the instructions of the kit provider. Only 3 concentrations of the test items (chosen in accordance with the Sponsor following the results of the viability assay) were assessed in the ELISA.

**Q.** OO [hydrogen peroxide, reference compound] was tested. Which “levels of ROS (controls)” value [1] did it give?
**A.** Its value is “tendency to increase the levels of ROS”.

**Q.** C[C@]12CC[C@@H]3c4ccc(O)cc4CC[C@H]3[C@@H]1CC[C@@H]2O [E2, 17β-estradiol, reference compound] was tested. Which “effect on the gap closure by NHEK” value ([2]; 10^−7M to 10^−9 M, after 24 h of treatment, significant only for 10^−8M) did it give?
**A.** The value was “inhibitor effect on the gap closure”.

**Q.** And the “colonization of the cell-free area by NHEK, overall” value ([2]; absence of MMC)?
**A.** Its value is “not able to significantly increase the colonization of the cell-free area; also recorded: no significant effect on keratinocyte proliferation or migration”.

**Q.** And the “colonization of the cell-free area by NHEK, overall” value ([2]; presence of MMC)?
**A.** The value was “not able to significantly increase the colonization of the cell-free area; also recorded: no significant effect on keratinocyte proliferation or migration”.

**Q.** What about the “NHDF Proliferation & Migration (colonization of the acellular area)” value (shortened to “NHDF Proliferation & Migration”) ([3]; 10^−7M, vs ethanol control) of the same molecule?
**A.** Its value is “increased the colonization of the acellular area; also recorded: significant activity”.

**Q.** And the “NHDF Proliferation & Migration” value ([3]; 10^−8M, vs ethanol control)?
**A.** The value was “increased the colonization of the acellular area; also recorded: significant activity”.

**Q.** What about the “NHDF Proliferation & Migration” value ([3]; 10^−10M, vs ethanol control) of the same molecule?
**A.** Its value is “increased the colonization of the acellular area; also recorded: significant activity”.

**Q.** And the “colonization of the cell-free gap by NHDF, overall” value ([3]; presence of MMC, all four concentrations (10^−7M to 10^−10M), vs ethanol control)?
**A.** Its value is “not able to significantly increase the colonization of the cell-free gap”.

**Q.** And the “PMA/A23187-induced IL-6 release” value [4]?
**A.** The value was “unaffected; also recorded: not observed”.

B1: PDGF-BB: positive control at 10 ng/ml for human fibroblasts (protein, UniProt P01127 82-190, looked up)
Platelet-derived growth …: SLGSLTIAEPAMIAECKTRTEVFEISRRLIDRTNANFLVWPPCVEVQRCSGCCNNRNVQCRPTQVQLRPVQVRKIEIVRKKPIFKKATVTLEDHLACKCETVAAARPVT
**Q.** What does the source list for B1?
**A.** colonized area, NHDF, positive reference ([3]; in absence of MMC): significantly increases the colonized area; colonized area, NHDF, positive reference ([3]; in presence of MMC): significantly increases the colonized area
